From PubChem BioAssay (NCI)
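Results reflect a 48-hour exposure of cells in 96-well plates to compound at five concentrations. TGI: total growth inhibition.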

What was measured:
Assay in all cases: NCI anticancer screen, dose series, 48 h
[1] = test system: SR leukemia
[2] = test system: HCT-116 colon
[3] = test system: SK-MEL-2 melanoma
[4] = test system: LXFL 529 NSCLC
[5] = test system: K-562 leukemia
[6] = test system: COLO 205 colon
[7] = test system: HT29 colon
[8] = test system: UACC-62 melanoma
[9] = test system: OVCAR-8 ovarian
[10] = test system: SF-295 CNS
[11] = test system: SNB-78 CNS
[12] = test system: OVCAR-3 ovarian
[13] = test system: NCI-H226 lung
[14] = test system: EKVX NSCLC
[15] = test system: HL-60(TB) leukemia
[16] = test system: KM12 colon
[17] = test system: DMS 273 small cell lung
[18] = test system: NCI-H23 lung
[19] = test system: M19-MEL melanoma
[20] = test system: ACHN renal
[21] = test system: SK-OV-3 ovarian
[22] = test system: SN12C renal
[23] = test system: HOP-18 NSCLC
[24] = test system: RXF 393 renal
[25] = test system: SF-539 CNS
[26] = test system: HOP-62 NSCLC
[27] = test system: MALME-3M melanoma
[28] = test system: NCI-H522 lung
[29] = test system: KM20L2 colon
[30] = test system: DLD-1 colon
[31] = test system: SNB-19 CNS
[32] = test system: HOP-92 NSCLC
[33] = test system: LOX IMVI melanoma
[34] = test system: OVCAR-5 ovarian
[35] = test system: TK-10 renal
[36] = test system: CAKI-1 renal
[37] = test system: A498 renal
[38] = test system: HCT-15 colon
[39] = test system: HCC-2998 colon
[40] = test system: UO-31 renal
[41] = test system: A549 NSCLC
[42] = test system: SK-MEL-5 melanoma
[43] = test system: 786-0 renal
[44] = test system: CCRF-CEM leukemia
[45] = test system: SW-620 colon
[46] = test system: IGROV1 ovarian
[47] = test system: OVCAR-4 ovarian
[48] = test system: M14 melanoma
[49] = test system: SNB-75 CNS
[50] = test system: NCI-H460 lung
[51] = test system: U251 CNS
[52] = test system: SK-MEL-28 melanoma
[53] = test system: SF-268 CNS
[54] = test system: UACC-257 melanoma
[55] = test system: RPMI-8226 leukemia

## CC(=O)O[C@]1(C)CCC2C(C)C(=O)OC2C2C(C)[C@@H](O)CC21 (stereo not given in full)
[1]
  TGI: > 100 µM
[2]
  TGI: 50.8 µM
[3]
  TGI: 58.3 µM
[4]
  TGI: 59 µM
[5]
  TGI: 54.9 µM
[6]
  TGI: 36.2 µM
[7]
  TGI: > 100 µM
[8]
  TGI: 89.5 µM
[9]
  TGI: > 100 µM
[10]
  TGI: > 100 µM
[11]
  TGI: > 100 µM
[12]
  TGI: 47.3 µM
[13]
  TGI: > 100 µM
[14]
  TGI: > 100 µM
[15]
  TGI: 34.2 µM
[16]
  TGI: > 100 µM
[17]
  TGI: 54.5 µM
[18]
  TGI: > 100 µM
[19]
  TGI: 57.4 µM
[20]
  TGI: > 100 µM
[21]
  TGI: > 100 µM
[22]
  TGI: > 100 µM
[23]
  TGI: > 100 µM
[24]
  TGI: 82.5 µM
[25]
  TGI: > 100 µM
[26]
  TGI: 45.2 µM
[27]
  TGI: > 100 µM
[28]
  TGI: 34.4 µM
[29]
  TGI: 71.2 µM
[30]
  TGI: > 100 µM
[31]
  TGI: > 100 µM
[32]
  TGI: 91.3 µM
[33]
  TGI: 34.2 µM
[34]
  TGI: > 100 µM
[35]
  TGI: > 100 µM
[36]
  TGI: > 100 µM
[37]
  TGI: > 100 µM
[38]
  TGI: 32.5 µM
[39]
  TGI: 58 µM
[40]
  TGI: > 100 µM
[41]
  TGI: > 100 µM
[42]
  TGI: 89.7 µM
[43]
  TGI: > 100 µM
[44]
  TGI: > 100 µM
[45]
  TGI: 31.2 µM
[46]
  TGI: > 100 µM
[47]
  TGI: > 100 µM
[48]
  TGI: 47.9 µM
[49]
  TGI: > 100 µM
[50]
  TGI: > 100 µM
[51]
  TGI: > 100 µM
[52]
  TGI: > 100 µM
[53]
  TGI: > 100 µM
[54]
  TGI: > 100 µM
[55]
  TGI: 60.1 µM
